Data from patent US11964950B2, “Arylamide derivative having antitumor activity” (priority 2020, dated 2024).
pIC50: −log10 of the molar value.

Experiments:
[1] = Human liver microsome stability; assay type: in vitro ADME; settings: hepatic intrinsic clearance, human liver microsomes, NADPH, 37° C.
Method: There were dispensed 400 μL of 1 mg/mL human liver microsomes (XENOTECH)/0.1 M potassium phosphate buffer (pH 7.4) into each well of a 96-well plate. A DMSO solution (4 μL) of 200 μM test compound was then added, and incubation was conducted until reaching 37° C. To this reaction mixture (200 μL) there was added a solution (200 μL) containing 2 mM NADPH (ORIENTAL YEAST)/0.1 M potassium phosphate buffer (pH 7.4) that had been incubated at 37° C. At 0 min, 5 min, 15 min or 30 min after addition, the reaction mixture (50 μL) was added to acetonitrile (100 μL) to stop the metabolic reaction. After the metabolic reaction was stopped, a 1 μM warfarin aqueous solution (50 μL) was added to each reaction mixture as an internal standard. The reaction mixture was filtered and analyzed by LC/MS/MS (LC: NEXERA by Shimadzu; MS: 4000Q trap by ABSciex; column: Ascentis Express C18 HPLC column (5 cm×2.1 mm, 2.7 μm); ionization method: electrospray ionization). The percent remaining relative to the amount of test compound at 0 min was calculated from the obtained peak area ratio of the test compound to internal standard. The elimination rate constant (ke) was calculated from the incubation time and percent remaining using the primary elimination rate equation, and the hepatic intrinsic clearance (CLint) was calculated using the formula shown below. CLint (μL/min/mg)=ke (min^−1)/human liver microsome concentration (mg protein/μL)

[2] = test system: Calu-6 human lung cancer cells; test: Cell proliferation-inhibiting activity, Calu-6 (CellTiter-Glo, ATP in viable cells); assay type: cell-based; settings: Calu-6, 96 h, Table 3, 4 days culture
Method: (§1) The cell proliferation-inhibiting activity of the compounds listed in Table 3 below was evaluated by measuring the amount of ATP in viable cells as described below.
(§2) The test compound was serially diluted with DMSO and then diluted 25-fold with Ca^2+, Mg^2+-free phosphate-buffered saline, and was then dispensed into a 96-well plate at 5 μL per well. A cell suspension containing the below indicated concentration of A549, Calu-6 or NCI-H2122 human lung cancer cells (all obtained from ATCC) was prepared using the below indicated medium with the addition of 10% fetal bovine serum (Sigma). The cell suspension was dispensed into the test compound-added plate at 95 μL per well and cultured in a 5% carbon dioxide gas incubator at 37° C. After 4 days, 80 μL of CellTiter-Glo (registered trademark) (Promega Corp.) was added to each well and the bioluminescence was measured with a fluorescent plate reader.
Calu-6: Eagle's Minimum Essential Medium (Sigma); 4000 cells/95 μL

[3] = test system: A549 human lung cancer cells; test: Cell proliferation-inhibiting activity, A549 (CellTiter-Glo, ATP in viable cells); assay type: cell-based; settings: A549, 96 h, Table 3, 4 days culture
Method: as §1, §2
A549: Dulbecco's Modified Eagle's Medium (Sigma); 2000 cells/95 μL

SMILES | CLint [1] [µL/min/mg] | pIC50 [2] | pIC50 [3]
CC1(S(=O)(=O)Nc2cccc(Cc3cc(C(N)=O)c(Nc4ccc(I)cc4F)c(F)c3F)c2F)CC1 [E-16, 3,4-Difluoro-2-(2-fluoro-4-iodoanilino)-5-[[2-fluoro-3-[(1-methylcyclopropyl)sulfonylamino]phenyl]methyl]benzamide] | <1 | – | –
CCS(=O)(=O)Nc1cccc(Cc2cc(C(=O)NC3CC3)c(Nc3ccc(I)cc3F)n(C)c2=O)c1F [K-8, N-Cyclopropyl-5-[[3-(ethylsulfonylamino)-2-fluorophenyl]methyl]-2-(2-fluoro-4-iodoanilino)-1-methyl-6-oxopyridine-3-carboxamide] | – | 6.91 | –
COCCNS(=O)(=O)Nc1nccc(Cc2cc(C(=O)NC3CC3)c(Nc3ccc(I)cc3F)n(C)c2=O)c1F [J-7, N-Cyclopropyl-2-(2-fluoro-4-iodoanilino)-5-[[3-fluoro-2-(2-methoxyethylsulfamoylamino)pyridin-4-yl]methyl]-1-methyl-6-oxopyridine-3-carboxamide] | – | – | 7.00
COCCNS(=O)(=O)Nc1nccc(Cc2cc(C(=O)NOC)c(Nc3ccc(I)cc3F)n(C)c2=O)c1F [J-9, 2-(2-Fluoro-4-iodoanilino)-5-[[3-fluoro-2-(2-methoxyethylsulfamoylamino)pyridin-4-yl]methyl]-N-methoxy-1-methyl-6-oxopyridine-3-carboxamide] | – | 6.63 | 6.78
CCS(=O)(=O)Nc1nccc(Cc2cc(C(=O)NC3CC3)c(Nc3ccc(C4CC4)cc3F)c(F)c2F)c1F [G-7, N-Cyclopropyl-2-(4-cyclopropyl-2-fluoroanilino)-5-[[2-(ethylsulfonylamino)-3-fluoropyridin-4-yl]methyl]-3,4-difluorobenzamide] | – | 6.35 | –
CCCNS(=O)(=O)Nc1nccc(Cn2cc(C(N)=O)c(Nc3ccc(I)cc3F)c(F)c2=O)c1F [N-2, 5-fluoro-4-(2-fluoro-4-iodoanilino)-1-[[3-fluoro-2-(propylsulfamoylamino)pyridin-4-yl]methyl]-6-oxopyridine-3-carboxamide] | – | – | 6.71
CCS(=O)(=O)Nc1nccc(Cn2cc(C(=O)NOC)c(Nc3ccc(I)cc3F)c(C)c2=O)c1F [P-5, 1-[[2-(ethylsulfonylamino)-3-fluoropyridin-4-yl]methyl]-4-(2-fluoro-4-iodoanilino)-N-methoxy-5-methyl-6-oxopyridine-3-carboxamide] | – | 6.35 | –
Cc1c(Nc2ccc(I)cc2F)c(C(N)=O)cn(Cc2ccnc(NS(=O)(=O)NC3(C)CCC3)c2F)c1=O [P-3, 4-(2-Fluoro-4-iodoanilino)-1-[[3-fluoro-2-[(1-methylcyclobutyl)sulfamoylamino]pyridin-4-yl]methyl]-5-methyl-6-oxopyridine-3-carboxamide] | – | 6.65 | –
CC1(NS(=O)(=O)Nc2cccc(Cc3cc(C(=O)NC4CC4)c(Nc4ccc(I)cc4F)c(F)c3F)c2F)CCC1 [D-10, N-Cyclopropyl-3,4-difluoro-2-(2-fluoro-4-iodoanilino)-5-[[2-fluoro-3-[(1-methylcyclobutyl)sulfamoylamino]phenyl]methyl]benzamide] | – | 6.51 | –
CNS(=O)(=O)Nc1nccc(Cc2cc(C(=O)NOC)c(Nc3ccc(Cl)cc3F)c(F)c2F)c1F [G-4, 2-(4-Chloro-2-fluoroanilino)-3,4-difluoro-5-[[3-fluoro-2-(methylsulfamoylamino)pyridin-4-yl]methyl]-N-methoxybenzamide] | – | 6.59 | –
CCNS(=O)(=O)Nc1nccc(Cc2cc(C(N)=O)c(Nc3ccc(I)cc3F)n(C)c2=O)c1F [J-14, 5-[[2-(ethylsulfamoylamino)-3-fluoropyridin-4-yl]methyl]-2-(2-fluoro-4-iodoanilino)-1-methyl-6-oxopyridine-3-carboxamide] | – | 6.91 | 6.92
COCCS(=O)(=O)Nc1cccc(Cc2cc(C(N)=O)c(Nc3ccc(I)cc3F)c(F)c2F)c1 [F-3, 3,4-Difluoro-2-(2-fluoro-4-iodoanilino)-5-[[3-(2-methoxyethylsulfonylamino)phenyl]methyl]benzamide] | – | 6.93 | –
NC(=O)c1cc(Cc2cccc(NS(=O)(=O)CCCF)c2F)c(F)c(F)c1Nc1ccc(I)cc1F [E-15, 3,4-Difluoro-5-[[2-fluoro-3-(3-fluoropropylsulfonylamino)phenyl]methyl]-2-(2-fluoro-4-iodoanilino)benzamide] | – | 6.82 | –
NC(=O)c1cc(Cc2cccc(NS(=O)(=O)C3COC3)c2F)c(F)c(F)c1Nc1ccc(I)cc1F [E-21, 3,4-Difluoro-2-(2-fluoro-4-iodoanilino)-5-[[2-fluoro-3-(oxetan-3-ylsulfonylamino)phenyl]methyl]benzamide] | – | 6.96 | –
COCCNS(=O)(=O)Nc1nccc(Cc2cc(C(N)=O)c(Nc3ccc(I)cc3F)n(C)c2=O)c1F [J-2, 2-(2-Fluoro-4-iodoanilino)-5-[[3-fluoro-2-(2-methoxyethylsulfamoylamino)pyridin-4-yl]methyl]-1-methyl-6-oxopyridine-3-carboxamide] | – | – | 6.45
CCCS(=O)(=O)Nc1nccc(Cc2cc(C(N)=O)c(Nc3ccc(I)cc3F)c(F)c2F)c1F [B-8, 3,4-Difluoro-2-(2-fluoro-4-iodoanilino)-5-[[3-fluoro-2-(propylsulfonylamino)pyridin-4-yl]methyl]benzamide] | – | 6.63 | –
CCCS(=O)(=O)Nc1cccc(Cc2cc(C(N)=O)c(Nc3ccc(I)cc3F)c(F)c2F)c1F [E-18, 3,4-Difluoro-2-(2-fluoro-4-iodoanilino)-5-[[2-fluoro-3-(propylsulfonylamino)phenyl]methyl]benzamide] | – | 6.91 | –
CC1(NS(=O)(=O)Nc2nccc(Cc3cc(C(=O)NC4CC4)c(Nc4ccc(I)cc4F)c(F)c3F)c2F)CCC1 [A-47, N-Cyclopropyl-3,4-difluoro-2-(2-fluoro-4-iodoanilino)-5-[[3-fluoro-2-[(1-methylcyclobutyl)sulfamoylamino]pyridin-4-yl]methyl]benzamide] | – | 6.98 | –
Cn1c(Nc2ccc(I)cc2F)c(C(N)=O)cc(Cc2ccnc(NS(=O)(=O)NC3CC3)c2F)c1=O [J-13, 5-[[2-(Cyclopropylsulfamoylamino)-3-fluoropyridin-4-yl]methyl]-2-(2-fluoro-4-iodoanilino)-1-methyl-6-oxopyridine-3-carboxamide] | – | 6.55 | 6.71
NC(=O)c1cc(Cc2cccc(NS(=O)(=O)C3CCC3)c2F)c(F)c(F)c1Nc1ccc(I)cc1F [E-20, 5-[[3-(Cyclobulsulfonylamino)-2-fluorophenyl]methyl]-3,4-difluoro-2-(2-fluoro-4-iodoanilino)benzamide] | – | 6.99 | –
CCS(=O)(=O)Nc1nccc(Cc2cc(C(N)=O)c(Nc3ccc(I)cc3F)c(F)c2F)c1F [A-38, 5-[[2-(Ethylsulfonylamino)-3-fluoropyridin-4-yl]methyl]-3,4-difluoro-2-(2-fluoro-4-iodoanilino)benzamide] | – | 6.91 | –
CCS(=O)(=O)Nc1cccc(Cc2cc(C(=O)NC3CC3)c(Nc3ccc(I)cc3F)c(F)c2F)c1F [D-8, N-Cyclopropyl-5-[[3-(ethylsulfonylamino)-2-fluorophenyl]methyl]-3,4-difluoro-2-(2-fluoro-4-iodoanilino)benzamide] | – | 6.95 | –
CCNS(=O)(=O)Nc1nccc(Cc2cc(C(N)=O)c(Nc3ccc(I)cc3F)cc2F)c1F [1-2, 5-[[2-(Ethylsulfamoylamino)-3-fluoropyridin-4-yl]methyl]-4-fluoro-2-(2-fluoro-4-iodoanilino)benzamide] | – | 6.99 | –
Cn1c(Nc2ccc(I)cc2F)c(C(N)=O)cc(Cc2ccnc(NS(=O)(=O)NC3(C)CCC3)c2F)c1=O [J-15, 2-(2-Fluoro-4-iodoanilino)-5-[[3-fluoro-2-[(1-methylcyclobutyl)sulfamoylamino]pyridin-4-yl]methyl]-1-methyl-6-oxopyridine-3-carboxamide] | – | 6.55 | –
COCCNS(=O)(=O)Nc1nccc(Cc2cc(C(N)=O)c(Nc3ccc(I)cc3F)cc2F)c1F [1-4, 4-Fluoro-2-(2-fluoro-4-iodoanilino)-5-[[3-fluoro-2-(2-methoxyethylsulfamoylamino)pyridin-4-yl]methyl]benzamide] | – | – | 6.35
CCS(=O)(=O)Nc1cc(Cc2cc(C(N)=O)c(Nc3ccc(I)cc3F)n(C)c2=O)ccn1 [J-12, 5-[[2-(Ethylsulfonylamino)pyridin-4-yl]methyl]-2-(2-fluoro-4-iodoanilino)-1-methyl-6-oxopyridine-3-carboxamide] | – | 6.33 | 6.65
